Source: PubChem BioAssay AID248 (DTP/NCI, 2004)
Where “and” joins values, the source holds several entries; their conditions need not be identical. Equal values may be shown once. Toxic doses and inconclusive results are not listed. Cut-off read from the data, not from the text of the source: active = T/C of 150% or more; inactive = T/C below 125%.

Tested on: L1210 leukemia ip in BDF1 mice, survival T/C
Experiment: NCI In Vivo Anticancer Drug Screen. Data for tumor model L1210 Leukemia (intraperitoneal) in B6D2F1 (BDF1) mice
Settings: endpoint: mean survival time, higher = longer survival
Outline: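 Read-out is survival time, reported as the treated-group measurement over the vehicle-control measurement.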

[1] = dose: 100.0 mg/kg/injection, schedule: Q01DX009 (ip), vehicle: Klucel (hydroxypropylcellulose) (HPC)
[2] = dose: 100.0 mg/kg/injection, schedule: Q04DX003 (ip), vehicle: saline
[3] = dose: 200.0 mg/kg/injection, schedule: Q01DX009 (ip), vehicle: Klucel (hydroxypropylcellulose) (HPC)
[4] = dose: 200.0 mg/kg/injection, schedule: Q04DX003 (ip), vehicle: saline
[5] = dose: 400.0 mg/kg/injection, schedule: Q01DX009 (ip), vehicle: Klucel (hydroxypropylcellulose) (HPC)
[6] = dose: 100.0 mg/kg/injection, schedule: Q04DX003 (ip), vehicle: Klucel (hydroxypropylcellulose) (HPC)
[7] = dose: 200.0 mg/kg/injection, schedule: Q04DX003 (ip), vehicle: Klucel (hydroxypropylcellulose) (HPC)
[8] = dose: 400.0 mg/kg/injection, schedule: Q04DX003 (ip), vehicle: Klucel (hydroxypropylcellulose) (HPC)
[9] = dose: 100.0 mg/kg/injection, schedule: Q01DX001 (ip), vehicle: carboxymethylcellulose (CMC)
[10] = dose: 200.0 mg/kg/injection, schedule: Q01DX001 (ip), vehicle: carboxymethylcellulose (CMC)
[11] = dose: 50.0 mg/kg/injection, schedule: Q01DX009 (ip), vehicle: saline
[12] = dose: 100.0 mg/kg/injection, schedule: Q01DX001 (ip), vehicle: saline
[13] = dose: 200.0 mg/kg/injection, schedule: Q01DX001 (ip), vehicle: saline
[14] = dose: 400.0 mg/kg/injection, schedule: Q01DX001 (ip), vehicle: saline
[15] = dose: 100.0 mg/kg/injection, schedule: Q01DX009 (ip), vehicle: saline with Tween-80
[16] = dose: 100.0 mg/kg/injection, schedule: Q04DX003 (ip), vehicle: saline with Tween-80
[17] = dose: 200.0 mg/kg/injection, schedule: Q04DX003 (ip), vehicle: saline with Tween-80
[18] = dose: 400.0 mg/kg/injection, schedule: Q01DX009 (ip), vehicle: saline with Tween-80
[19] = dose: 400.0 mg/kg/injection, schedule: Q04DX003 (ip), vehicle: saline with Tween-80
[20] = dose: 50.0 mg/kg/injection, schedule: Q01DX001 (ip), vehicle: saline
[21] = dose: 200.0 mg/kg/injection, schedule: Q01DX009 (ip), vehicle: saline with Tween-80
[22] = dose: 100.0 mg/kg/injection, schedule: Q01DX001 (ip), vehicle: saline with Tween-80
[23] = dose: 200.0 mg/kg/injection, schedule: Q01DX001 (ip), vehicle: saline with Tween-80
[24] = dose: 400.0 mg/kg/injection, schedule: Q01DX001 (ip), vehicle: saline with Tween-80
[25] = dose: 100.0 mg/kg/injection, schedule: Q01DX001 (ip), vehicle: Klucel (hydroxypropylcellulose) (HPC)

Measured: T/C

CN1CCC(c2ccccc2)c2ccccc21 (stereo unspecified)
inactive: dose: 100.0 mg/kg/injection, schedule: Q04DX003 (ip), vehicle: other 95 % of control | dose: 200.0 mg/kg/injection, schedule: Q04DX003 (ip), vehicle: other 120 % of control | dose: 400.0 mg/kg/injection, schedule: Q04DX003 (ip), vehicle: other 98 % of control

Cc1cccc2cc3cccc(C)[n+]3cc12
inactive: dose: 5.0 mg/kg/injection, schedule: Q01DX001 (ip), vehicle: other 100 % of control | dose: 10.0 mg/kg/injection, schedule: Q01DX001 (ip), vehicle: other 97 % of control | dose: 20.0 mg/kg/injection, schedule: Q01DX001 (ip), vehicle: other 100 % of control

O=C(c1ccccc1)C1Cc2ccccc2C1=O (stereo unspecified)
inactive: [1] 100 % of control | [2] 102 % of control | [3] 114 % of control | [4] 102 % of control | [5] 97 % of control | dose: 400.0 mg/kg/injection, schedule: Q04DX003 (ip), vehicle: saline 102 % of control

O=C(O)c1ccccc1C(=O)c1ccc(Br)cc1
inactive: [6] 93 % of control | [7] 96 % of control | [8] 104 % of control

CC/C(=C/C(F)(F)C(F)(F)C(F)(F)F)[N+](=O)[O-]
inactive: [9] 112 % of control | [10] 103 % of control

N=C(N)SCc1ccc(CSC(=N)N)cc1
inactive: dose: 12.5 mg/kg/injection, schedule: Q04DX002 (ip), vehicle: saline with Tween-80 102 % of control | dose: 25.0 mg/kg/injection, schedule: Q01DX009 (ip), vehicle: saline 91 % of control | dose: 25.0 mg/kg/injection, schedule: Q04DX002 (ip), vehicle: saline with Tween-80 94 % of control | dose: 25.0 mg/kg/injection, schedule: Q04DX003 (ip), vehicle: saline 103 % of control | [11] 97 % of control | dose: 50.0 mg/kg/injection, schedule: Q04DX003 (ip), vehicle: saline 102 % of control | [2] 105 % of control

CN(C)C
inactive: [11] 101 % of control | dose: 100.0 mg/kg/injection, schedule: Q04DX002 (ip), vehicle: saline 105 % of control | [2] 98 % of control | dose: 200.0 mg/kg/injection, schedule: Q04DX002 (ip), vehicle: saline 97 % of control | [4] 94 % of control

CCCCOC(=O)c1ccc(NC(=O)NC)cc1
inactive: [1] 100 % of control | [3] 101 % of control | [5] 101 % of control

O=C(N/N=C/c1ccccc1Cl)c1cccc2ccccc12
inactive: [12] 92 % of control | [13] 101 % of control | [14] 103 % of control

O=c1cc(-c2ccccc2)[nH]c(=S)[nH]1
inactive: [15] 94 % of control | [16] 101 % of control | [17] 103 % of control | [18] 89 % of control | [19] 106 % of control

CCC1(O)C(=O)OCc2c1cc1n(c2=O)CCC1 (stereo unspecified)
inactive: dose: 12.5 mg/kg/injection, schedule: Q01DX001 (ip), vehicle: saline 113 % of control | dose: 25.0 mg/kg/injection, schedule: Q01DX001 (ip), vehicle: saline 106 % of control and 110 % of control | [20] 102 % of control | [12] 101 % of control | [13] 98 % of control

O=C(Nc1ccc(Cl)cc1C(F)(F)F)OCCOc1ccccc1Cl
inactive: [15] 91 % of control | [21] 95 % of control | [18] 93 % of control

COc1ccc(C(=O)/C=C/c2ccc(Cl)cc2)cc1
inactive: [6] 100 % of control | [7] 95 % of control | [8] 92 % of control

CC1([N+](=O)[O-])COP(=O)(Nc2cccc(Br)c2)OC1 (stereo unspecified)
inactive: [9] 96 % of control | [10] 94 % of control | dose: 400.0 mg/kg/injection, schedule: Q01DX001 (ip), vehicle: carboxymethylcellulose (CMC) 100 % of control

C1CCCN(/N=N/N2CCCCCC2)CC1
inactive: [22] 100 % of control | [23] 92 % of control | [24] 100 % of control

Cc1cc2cccc(CN)c2cc1C
inactive: [25] 93 % of control

CCN(CC)C(C)C(O)c1ccc2cc(Br)c3ccccc3c2c1 (stereo unspecified)
inactive: dose: 55.0 mg/kg/injection, schedule: Q01DX Z (ip), vehicle: methylcellulose (MC) 95 % of control | dose: 83.0 mg/kg/injection, schedule: Q01DX Z (ip), vehicle: methylcellulose (MC) 97 % of control | dose: 125.0 mg/kg/injection, schedule: Q01DX Z (ip), vehicle: methylcellulose (MC) 92 % of control

CC(=O)c1ccccc1C(=O)O
inactive: dose: 50.0 mg/kg/injection, schedule: Q04DX003 (ip), vehicle: Klucel (hydroxypropylcellulose) (HPC) 98 % of control | [6] 94 % of control | [7] 96 % of control

O=C(O)c1ccccc1C(=O)c1cccc2c(Cl)cccc12
inactive: dose: 50.0 mg/kg/injection, schedule: Q01DX001 (ip), vehicle: Klucel (hydroxypropylcellulose) (HPC) 97 % of control | [25] 92 % of control | dose: 200.0 mg/kg/injection, schedule: Q01DX001 (ip), vehicle: Klucel (hydroxypropylcellulose) (HPC) 91 % of control

N#Cc1cccc(/C=C/C=C\c2ccc([N+](=O)[O-])cc2)c1
inactive: [1] 89 % of control | [3] 95 % of control

C/C(=C\c1c[nH]c2ccccc12)[N+](=O)[O-]
inactive: [15] 90 % of control | [16] 97 % of control | [21] 100 % of control | [17] 97 % of control | [18] 100 % of control | [19] 90 % of control

O=c1cc(Cl)c(=O)[nH][nH]1
inactive: [15] 100 % of control | [16] 94 % of control | [21] 100 % of control | [17] 94 % of control | [18] 114 % of control | [19] 94 % of control

COC(=O)c1[nH]nc(-c2ccccc2)c1N
inactive: [16] 101 % of control | [17] 93 % of control | [19] 90 % of control

O=C1c2ccccc2C(=O)N1/N=C/c1cc(Cl)cc(Cl)c1O
inactive: dose: 75.0 mg/kg/injection, schedule: Q01DX001 (ip), vehicle: saline 91 % of control | dose: 150.0 mg/kg/injection, schedule: Q01DX001 (ip), vehicle: saline 93 % of control | dose: 300.0 mg/kg/injection, schedule: Q01DX001 (ip), vehicle: saline 93 % of control

Cc1c(N2CCCCC2)[nH]c2ccccc12
inactive: [1] 87 % of control | [6] 96 % of control | [7] 95 % of control | [8] 88 % of control

CCOC(=O)c1ccc(NC(=O)Sc2ccc(C(C)(C)C)cc2C)cc1
inactive: [15] 96 % of control | [21] 100 % of control

Oc1c(Cl)cc(Cl)cc1C=NCC1CCC(CN=Cc2cc(Cl)cc(Cl)c2O)CC1 (stereo unspecified)
inactive: [15] 92 % of control | [21] 92 % of control | [18] 94 % of control

O=S(=O)(Nc1cccc2ccccc12)c1ccc(Cl)cc1
inactive: [1] 102 % of control | [3] 87 % of control | [5] 95 % of control

Nc1nc(N)c(-c2ccc(Cl)c(Cl)c2)c(/C=C/c2ccc(S(=O)(=O)F)cc2)n1
inactive: [22] 87 % of control | [23] 91 % of control | [24] 87 % of control

Cc1ccc(Nc2nc(N)nc(N)c2C=O)cc1C
inactive: [20] 109 % of control | [12] 109 % of control | [13] 100 % of control | [14] 97 % of control
